Common to all, as to type: in vivo
Assay [1] deals with ragweed (common ragweed, Ambrosia elatior). Briefly: Test A postemergence. Conditions: Ambrosia artemisiifolia, post-emergence, 240 h, 125 g ai/ha, postemergence, visual injury rating after approximately 10 d; read-out: Ragweed plant response rating (0 to 100 scale, 0 no effect, 100 complete control). The method, boiled down: (§1)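 Compounds were formulated in a non-phytotoxic solvent mixture with surfactant and applied as a preemergence directed soil spray after seeding, or sprayed postemergence over plants 2 to 10 cm tall at the one- to two-leaf stage. Evaluation after about 10 d compared treated with untreated controls, using a scale from 0 (no effect) to 100 (complete control).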

Another assay concerns corn (Zea mays). Briefly: Test A postemergence. Conditions: Zea mays, post-emergence, 240 h, 125 g ai/ha, postemergence, visual injury rating after approximately 10 d; read-out: Corn plant response rating (0 to 100 scale, 0 no effect, 100 complete control). A digest of the protocol:
as §1

Assay [2] relates to blackgrass (Alopecurus myosuroides). Briefly: Test A postemergence. Conditions: Alopecurus myosuroides, post-emergence, 240 h, 125 g ai/ha, postemergence, visual injury rating after approximately 10 d; read-out: Blackgrass plant response rating (0 to 100 scale, 0 no effect, 100 complete control). The method, boiled down: as §1
In assay [3] the test system is ryegrass, Italian (Italian ryegrass, Lolium multiflorum). The experiment in a line: Test A postemergence. Conditions: Lolium multiflorum, post-emergence, 240 h, 125 g ai/ha, postemergence, visual injury rating after approximately 10 d; read-out: Ryegrass, Italian plant response rating (0 to 100 scale, 0 no effect, 100 complete control). The method, boiled down:
as §1

Assay [4] has as its system Galium (catchweed bedstraw, Galium aparine). The experiment in a line: Test A postemergence. Conditions: Galium, post-emergence, 240 h, 125 g ai/ha, postemergence, visual injury rating after approximately 10 d; read-out: Galium plant response rating (0 to 100 scale, 0 no effect, 100 complete control). A digest of the protocol:
as §1

Assay [5] relates to barnyardgrass (Echinochloa crus-galli). Briefly: Test A postemergence. Conditions: Echinochloa crus-galli, post-emergence, 240 h, 125 g ai/ha, postemergence, visual injury rating after approximately 10 d; read-out: Barnyardgrass plant response rating (0 to 100 scale, 0 no effect, 100 complete control). A digest of the protocol:
as §1

Assay [6] concerns giant foxtail (Setaria faberii). The experiment in a line: Test A postemergence. The following applies: Setaria faberi, post-emergence, 240 h, 125 g ai/ha, postemergence, visual injury rating after approximately 10 d; read-out: Foxtail, Giant plant response rating (0 to 100 scale, 0 no effect, 100 complete control). The method, boiled down:
as §1

For assay [7], the system named is pigweed (Amaranthus retroflexus). The experiment in a line: Test A postemergence. Conditions: Amaranthus retroflexus, post-emergence, 240 h, 125 g ai/ha, postemergence, visual injury rating after approximately 10 d; read-out: Pigweed plant response rating (0 to 100 scale, 0 no effect, 100 complete control). The method, boiled down: as §1
The subject of assay [8] is wheat (Triticum aestivum). Briefly: Test A postemergence. The following applies: Triticum aestivum, post-emergence, 240 h, 125 g ai/ha, postemergence, visual injury rating after approximately 10 d; read-out: Wheat plant response rating (0 to 100 scale, 0 no effect, 100 complete control). The method, boiled down: as §1
For a further assay, the system named is Kochia (Kochia scoparia). The experiment in a line: Test A postemergence. The following applies: Bassia scoparia, post-emergence, 240 h, 125 g ai/ha, postemergence, visual injury rating after approximately 10 d; read-out: Kochia plant response rating (0 to 100 scale, 0 no effect, 100 complete control). A digest of the protocol: as §1
For assay [9], the system named is pigweed (Amaranthus retroflexus). Briefly: Test A preemergence. Conditions: Amaranthus retroflexus, pre-emergence, 240 h; for pest or weed control at 125 g/ha: 125 g ai/ha, preemergence, 0 to 100 scale where 0 is no effect and 100 is complete control, read-out: Pigweed plant response rating; for pest or weed control at 500 g/ha: 500 g ai/ha, Preemergence, visual injury vs untreated controls after approximately 10 d, read-out: Pigweed plant response rating (0 to 100 scale where 0 is no effect and 100 is complete control).

Assay [10] relates to barnyardgrass (Echinochloa crus-galli). Briefly: Test B flooded paddy test. The following applies: Echinochloa crus-galli, Flood, 250 g ai/ha; scale of 0 to 100 where 0 is no effect and 100 is complete control; read-out: Barnyardgrass plant response rating. A digest of the protocol: (§2)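 Flooding to 3 cm over soil accompanied treatment, which consisted of adding compound to the standing water around 2-leaf plants; depth was then maintained. Visual assessment versus controls followed at 13 to 15 d (scale 0–100, 0 meaning no effect).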

In assay [11] the test system is sedge, umbrella (small-flower umbrella sedge, Cyperus difformis). The experiment in a line: Test B flooded paddy test. Conditions: Cyperus difformis, Flood, 250 g ai/ha; scale of 0 to 100 where 0 is no effect and 100 is complete control; read-out: Sedge, Umbrella plant response rating. A digest of the protocol: as §2
Assay [12] deals with ducksalad (Heteranthera limosa). Briefly: Test B flooded paddy test. Conditions: Heteranthera limosa, Flood, 250 g ai/ha; scale of 0 to 100 where 0 is no effect and 100 is complete control; read-out: Ducksalad plant response rating. The method, boiled down:
as §2

Another assay relates to rice (Oryra sativa). Briefly: Test B flooded paddy test. The following applies: Oryza sativa, Flood, 250 g ai/ha; scale of 0 to 100 where 0 is no effect and 100 is complete control; read-out: Rice plant response rating. A digest of the protocol: as §2

For 2 compounds, pest or weed control and plant injury results are on record in patent US12077503B2, “Substituted cyclic amides and their use as herbicides” (FMC CORPORATION, priority 2015, dated 2024).

Consider `CC(C)c1cccc([C@H]2CN(C)C(=O)[C@@H]2C(=O)Nc2ccc(F)cc2F)c1` [Compound 821], for which the pest or weed control at 125 g/ha in assay [1] was determined as 0%; in [2] it was 70%; in [3], 20%; in assay [4], 50%; in assay [5], 90%; in assay [6], 80%. Also, the pest or weed control at 125 g/ha is 0% in assay [7], 30% in the assay on Kochia (Kochia scoparia) and 50% in assay [9]. Further, the plant injury at 125 g/ha with corn (Zea mays) was found to be 40%; in assay [8] it was 0%. Besides, the pest or weed control at 500 g/ha in assay [9] was determined as 50%. Further, the pest or weed control at 250 g/ha in assay [10] was 60%; in assay [11], 0%; in assay [12], 80%; with rice (Oryra sativa), 0%.

As for `CN1CC(c2cccc(C=O)c2)C(C(=O)Nc2ccccc2F)C1=O` (centres unmarked) [Compound 844], the pest or weed control at 125 g/ha in assay [1], in assay [2], in assay [3], in [4], in [5] and in assay [6] was 0% throughout. Moreover, the pest or weed control at 125 g/ha (in [7]; in the assay on Kochia (Kochia scoparia); in [9]) was 0% each time. The plant injury at 125 g/ha (in the assay with corn (Zea mays); in assay [8]) was 0% each time. In assay [9], the pest or weed control at 500 g/ha was 0%. Also, the pest or weed control at 250 g/ha (in [10]; in assay [11]; in assay [12]; with rice (Oryra sativa)) was 0% in each case.
